The subject of one series is P. falciparum 3D7. Kind of series: P. falciparum 3D7 SCID mouse model, in vivo efficacy. The arrangement: species or system Plasmodium falciparum (SCID mice). Particulars: oral 150 mg kg^–1 day^–1, four consecutive days, one animal. Here is the method:
The animal experiments against P. berghei were carried out at the Swiss Tropical and Public Health Institute adhering to local and national regulations of laboratory animal welfare in Switzerland (awarded permission no. BL530). Protocols are regularly reviewed and revised following approval by the local authority (Amt für Lebensmittelsicherheit and Veterinärwesen Basel-Land). Female mice infected with GFP-expressing P. berghei (ANKA strain, donated by A. P. Waters and C. J. Janse, Leiden University, The Netherlands) were analyzed for in vivo efficacy of 7e and 8a as described previously.[18],[19] Parasitemia was determined using flow cytometry with a detection limit of 1 parasite in 1000 erythrocytes. Compound activity was calculated as the difference between the mean parasitemia for the control and treated groups (n = 3, each) expressed relative to the control group. 7e and 8a were suspended in 70/30 Tween 80/ethanol, diluted 10-fold with water and administered orally 4, 24, 48, and 72 h after infection. 7e was analyzed at 30, 10, and 3 mg kg^–1, 8a at 50, and 10 mg kg^–1. In vivo efficacy against P. falciparum was conducted at The Art of Discovery, TAD, Bizkaia, Spain, according to the previously described standard assay.[16],[17]

Series [1] can be described thus: Blood levels of compound in the SCID mouse model. Format: in vivo.

The record followed here is PMC11513924, “Addressing the Intracellular Vestibule of the Plasmodial Lactate Transporter PfFNT by p-Substituted Inhibitors Amplifies In Vitro Activity” (Journal of Medicinal Chemistry, 2024).

Turning to `CCCNc1ccc(C(=O)/C=C(\O)C(F)(F)C(F)(F)F)cn1` [7e, 4,4,5,5,5-Pentafluoro-3-hydroxy-1-(6-(propylamino)pyridin-3-yl)pent-2-en-1-one], in the series with P. falciparum 3D7, the “effect on parasite load” value is reported as “decreased the parasite load below the starting parasitemia”. Besides, the “blood concentration (peak)” value in series [1] (oral 4 × 50 mg kg^–1) was around 2 μg mL^–1. In series [1] (whole blood, oral 4 × 50 mg kg^–1, read-out: half-life from modeled blood profile), the half-life fell in the range of 2 to 4 h.
